Source: publication PMC7375528, “Piperidine scaffold as the novel P2-ligands in cyclopropyl-containing HIV-1 protease inhibitors: Structure-based design, synthesis, biological evaluation and docking study” (PLoS ONE, 2020)

Legend:
HIV-1 protease = tested on: HIV-1 protease; design: method as in PMID 32057582; settings: previously reported PIs; cited from earlier work
[1] = Cytotoxicity assay (cell counting kit-8); format: cell-based; settings: human; 293T cells, CCK-8, 24h exposure
Method: Selected inhibitors were further evaluated in cytotoxicity assay using a cell counting kit-8 assay. […] After 24h of culture, 1μL of drugs were added to each well. After another 24h of culture, 10 μL of CCK-8 was added to each well. Absorbance was quantified at wavelength 450 nm using an EnVision multilabel reader (PerkinElmer) after 2h at room temperature.

wild-type HIV-1 PR = target: T1, wild-type HIV-1 PR (Human immunodeficiency virus type 1 group M subtype B, UniProt P04585); test: In vitro HIV-1 PR activity assay (FRET); format: biochemical
T1 construct: HIV-1 protease was cloned and heterologously expressed in Escherichia coli and purified; made in house; host or cells: Escherichia coli
Method: (§1) The inhibitory effect of all new designed inhibitors were measured using fluorescence resonance energy transfer (FRET) method. […] The energy transfer donor (EDANS) and acceptor (DABCYL) dyes are labeled at two ends of the peptide to perform FRET. Excitation and emission wavelengths were set at 340 nm and 490 nm. Inhibitors were dissolved in dimethylsulfoxide (DMSO) and diluted to appropriate concentrations. HIV-1 protease was cloned and heterologously expressed in Escherichia coli and purified. The experiment was carried out in 96-well plates. The FRET assay reaction buffer contained 0.1 M sodium acetate, 1 M sodium chloride, 1 mM ethylenediaminetetraacetic acid (EDTA), 1 mM dithiothreitol (DTT), 2% DMSO and 1 mg/mL bovine serum albumin (BSA) with an adjusted pH 4.7. Protease and inhibitor were mixed and incubated for 20–30 mins at room temperature and then the substrate was added. Each reaction was recorded for about 10 mins. From plots of concentration versus the calculated percent inhibition, IC50 values were determined.
as §1, with “20-30” for “20–30”, “mins.” for “mins. From plots of concentration versus the calculated percent inhibition, IC50 values were determined.”

[2] = tested on: DRV-resistant HIV-1 variants; test: HIV-1 infectivity assay, DRV-resistant; format: cell-based; settings: Human immunodeficiency virus 1, read-out: inhibition against DRV-resistant HIV-1 variants
Method: (§2) . Inhibitors dissolved in dimethylsulfoxide (DMSO) and diluted to appropriate concentrations, were added into culture medium at 5 hours of post-transfection. After incubating for 48 hours at temperature 37 °C, pseudotyped viruses in 10 μL of supernatant were used to infect SupT1 cells for 48 hours, followed by measuring luciferase activity of newly infected cells using Centro LB960 (Berthold).
(§3) Fig 6 Inhibition of inhibitors against wild-type and DRV-resistant HIV-1 variants.

wild-type HIV-1 variants = test: HIV-1 infectivity assay, wild-type; format: cell-based; settings: Human immunodeficiency virus 1, read-out: inhibition against wild-type HIV-1 variants
Method: as §2
For the assay using wild type HIV-1, 1×10^6 SupT1 cells were infected with 100 μL HIV-1 NL4-3 in the presence of 100 nM chemicals and 10 μg/mL polybrene, keeping a total volume of 500 μL (Spin infection at 1800rpm, 45min). Cells were washed once in the next morning and medium were replaced with fresh medium containing 100 nM chemicals. At 48 hpi, viruses were harvested and 50 μL of viruses were used to infect TZM-bl cells, followed by measuring luciferase activity in the infected cells.
as §3

Row | Compound | IC50 (HIV-1 protease) | melting point | CC50 at 24 h [1] | IC50 (wild-type HIV-1 PR) | inhibition at 10 µM [2] | inhibition at 10 µM (wild-type HIV-1 variants) | improvement of potency over 23a (wild-type HIV-1 PR; ratio of IC50 values, (R)- vs (S)-configuration)
1 | O=C(N[C@@H](Cc1ccccc1)[C@H](O)CN(C1CC1)S(=O)(=O)c1ccc(C(F)(F)F)cc1)N1CCOCC1 [B] | 47 nM | – | – | – | – | – | –
2 | COc1ccc(S(=O)(=O)N(C[C@@H](O)[C@H](Cc2ccccc2)NC(=O)OCCN2CCOCC2)C2CC2)cc1 [A] | 53 nM | – | – | – | – | – | –
3 | CN1CCC[C@@H](C(=O)N[C@@H](Cc2ccccc2)[C@H](O)CN(C2CC2)S(=O)(=O)c2ccc(N)cc2)C1 [24d, (R)-N-((2S,3R)-4-((4-amino-N-cyclopropylphenyl)sulfonamido)-3-hydroxy-1-phenylbutan-2-yl)-1-methylpiperidine-3-carboxamide] | – | 75.8 to 77.3 °C | > 100000 nM | 16.3 ± 9.54 nM | – | – | –
4 | O=C(N[C@@H](Cc1ccccc1)[C@H](O)CN(C1CC1)S(=O)(=O)c1ccc(C(F)(F)F)cc1)[C@@H]1CCCNC1 [22b, (R)-N-((2S,3R)-4-((N-cyclopropyl-4-(trifluoromethyl)phenyl)sulfonamido)-3-hydroxy-1-phenylbutan-2-yl)piperidine-3-carboxamide] | – | 204.8 to 206.3 °C | > 100000 nM | 8.35 ± 5.58 nM | – | – | –
5 | COc1ccc(S(=O)(=O)N(C[C@@H](O)[C@H](Cc2ccccc2)NC(=O)[C@@H]2CCCN(C)C2)C2CC2)cc1 [24a, (R)-N-((2S,3R)-4-((N-cyclopropyl-4-methoxyphenyl)sulfonamido)-3-hydroxy-1-phenylbutan-2-yl)-1-methylpiperidine-3-carboxamide] | – | 86.4 to 88.2 °C | > 100000 nM | 8.07 ± 3.59 nM | 8% | 16% | –
6 | CN1CCC[C@@H](C(=O)N[C@@H](Cc2ccccc2)[C@H](O)CN(C2CC2)S(=O)(=O)c2ccc(C(F)(F)F)cc2)C1 [24b, (R)-N-((2S,3R)-4-((N-cyclopropyl-4-(trifluoromethyl)phenyl)sulfonamido)-3-hydroxy-1-phenylbutan-2-yl)-1-methylpiperidine-3-carboxamide] | – | 82.9 to 84.7 °C | > 100000 nM | 9.28 ± 5.66 nM | 7% | 12% | –
7 | COc1ccc(S(=O)(=O)N(C[C@@H](O)[C@H](Cc2ccccc2)NC(=O)[C@H]2CCCNC2)C2CC2)cc1 [23a, (S)-N-((2S,3R)-4-((N-cyclopropyl-4-methoxyphenyl)sulfonamido)-3-hydroxy-1-phenylbutan-2-yl)piperidine-3-carboxamide] | – | 92.9 to 94.7 °C | – | 433 ± 97.5 nM | – | – | –
8 | CN1CCC[C@@H](C(=O)N[C@@H](Cc2ccccc2)[C@H](O)CN(C2CC2)S(=O)(=O)c2ccc([N+](=O)[O-])cc2)C1 [24c, (R)-N-((2S,3R)-4-((N-cyclopropyl-4-nitrophenyl)sulfonamido)-3-hydroxy-1-phenylbutan-2-yl)-1-methylpiperidine-3-carboxamide] | – | 159.9 to 161.2 °C | – | 39.5 ± 11.9 nM | – | – | –
9 | COc1ccc(S(=O)(=O)N(C[C@@H](O)[C@H](Cc2ccccc2)NC(=O)[C@@H]2CCCNC2)C2CC2)cc1 [22a, (R)-N-((2S,3R)-4-((N-cyclopropyl-4-methoxyphenyl)sulfonamido)-3-hydroxy-1-phenylbutan-2-yl)piperidine-3-carboxamide] | – | 162.8 to 164.3 °C | > 100000 nM | 3.61 nM | 26% | 42% | 120 fold
10 | Nc1ccc(S(=O)(=O)N(C[C@@H](O)[C@H](Cc2ccccc2)NC(=O)C2CCNCC2)C2CC2)cc1 [26d, N-((2S,3R)-4-((4-amino-N-cyclopropylphenyl)sulfonamido)-3-hydroxy-1-phenylbutan-2-yl)piperidine-4-carboxamide] | – | 204.7 to 206.5 °C | – | 245 ± 39.8 nM | – | – | –
11 | Nc1ccc(S(=O)(=O)N(C[C@@H](O)[C@H](Cc2ccccc2)NC(=O)CN2CCCCC2)C2CC2)cc1 [27d, N-((2S,3R)-4-((4-amino-N-cyclopropylphenyl)sulfonamido)-3-hydroxy-1-phenylbutan-2-yl)-2-(piperidin-1-yl)acetamide] | – | 144.4 to 146.2 °C | – | 34.7 ± 12.5 nM | – | – | –
12 | O=C(CN1CCCCC1)N[C@@H](Cc1ccccc1)[C@H](O)CN(C1CC1)S(=O)(=O)c1ccc(C(F)(F)F)cc1 [27b, N-((2S,3R)-4-((N-cyclopropyl-4-(trifluoromethyl)phenyl)sulfonamido)-3-hydroxy-1-phenylbutan-2-yl)-2-(piperidin-1-yl)acetamide] | – | 72.3 to 75.2 °C | – | 52.7 ± 14.7 nM | – | – | –
13 | Nc1ccc(S(=O)(=O)N(C[C@@H](O)[C@H](Cc2ccccc2)NC(=O)[C@@H]2CCCNC2)C2CC2)cc1 [22d, (R)-N-((2S,3R)-4-((4-amino-N-cyclopropylphenyl)sulfonamido)-3-hydroxy-1-phenylbutan-2-yl)piperidine-3-carboxamide] | – | 216.5 to 218.3 °C | > 100000 nM | 10.1 ± 6.71 nM | – | – | –
14 | Nc1ccc(S(=O)(=O)N(C[C@@H](O)[C@H](Cc2ccccc2)NC(=O)[C@H]2CCCNC2)C2CC2)cc1 [23d, (S)-N-((2S,3R)-4-((4-amino-N-cyclopropylphenyl)sulfonamido)-3-hydroxy-1-phenylbutan-2-yl)piperidine-3-carboxamide] | – | 77.8 to 79.4 °C | – | 313 ± 58.1 nM | – | – | –
15 | O=C(N[C@@H](Cc1ccccc1)[C@H](O)CN(C1CC1)S(=O)(=O)c1ccc([N+](=O)[O-])cc1)[C@@H]1CCCNC1 [22c, (R)-N-((2S,3R)-4-((N-cyclopropyl-4-nitrophenyl)sulfonamido)-3-hydroxy-1-phenylbutan-2-yl)piperidine-3-carboxamide] | – | 196.8 to 198.4 °C | > 100000 nM | 17 ± 8.12 nM | – | – | –
